As a reminder, the IC50 is the point on the concentration scale where inhibition reaches its midpoint.

For one experiment, the target named is His-tagged recombinant human Gal-3 (hGal-3) (Homo sapiens (Human), UniProt P17931). Description: Gal-3 HTRF assay (His-tagged hGal-3 binding to B-ASF).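 Note: compounds preincubated 30 min with hGal-3, then 1 h with B-ASF, detection via terbium anti-His antibody and streptavidin d2. Control with B-ASF counts as full signal, omitting B-ASF as background.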 As to conditions: HTRF, hGal-3 15 nM, B-ASF 15 nM; read-out: hGal-3 IC50.
Chain of His-tagged recombinant human Gal-3 (hGal-3) (P17931 whole entry): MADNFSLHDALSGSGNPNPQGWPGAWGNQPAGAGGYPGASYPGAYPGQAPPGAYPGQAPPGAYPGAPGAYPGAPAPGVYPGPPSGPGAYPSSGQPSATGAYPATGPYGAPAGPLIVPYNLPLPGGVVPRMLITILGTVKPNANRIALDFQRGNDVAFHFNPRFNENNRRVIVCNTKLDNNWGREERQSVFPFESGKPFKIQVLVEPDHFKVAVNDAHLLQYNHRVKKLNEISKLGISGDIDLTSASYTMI
In the case of `Cc1nc2ccc(-c3cnnn3[C@@H]3O[C@H](CO)[C@H](O)[C@H](n4cc(-c5cc(F)c(F)c(F)c5)nn4)[C@H]3O)cc2s1` [Example 8], the IC50 was 158 nM.

Regarding `Cc1nc2ccc(-n3ncnc3[C@@H]3O[C@H](CO)[C@H](O)[C@H](n4cc(-c5cc(F)c(Cl)c(Cl)c5)nn4)[C@H]3O)cc2s1` [Example 221, (2R,3R,4R,5R,6S)-4-(4-(3,4-dichloro-5-fluorophenyl)-1H-1,2,3-triazol-1-yl)-2-(hydroxymethyl)-6-(1-(2-methylbenzo[d]thiazol-6-yl)-1H-1,2,4-triazol-5-yl)tetrahydro-2H-pyran-3,5-diol], the IC50 was determined as 50 nM.

Consider `Cc1ccc(Cl)cc1-n1ncnc1[C@H]1C[C@@H](n2cc(-c3cc(F)c(F)c(F)c3)nn2)[C@@H](O)[C@@H](CO)O1` [Example 178], for which the IC50 was 250 nM.

For `O=C(NCc1ccncc1)c1nnc([C@@H]2O[C@H](CO)[C@H](O)[C@H](n3cc(-c4cccc(F)c4)nn3)[C@H]2O)o1` [Example 296, 5-((2R,3R,4S,5R,6R)-4-(4-(3-fluorophenyl)-1H-1,2,3-triazol-1-yl)-3,5-dihydroxy-6-(hydroxymethyl)tetrahydro-2H-pyran-2-yl)-N-(pyridin-4-ylmethyl)-1,3,4-oxadiazole-2-carboxamide], the IC50 was 1490 nM.

For `Cc1nc2ccc(-n3c([C@@H]4O[C@H](CO)[C@H](O)[C@H](n5cc(-c6cc(F)c(F)c(F)c6)nn5)[C@H]4O)nnc3C(C)(C)O)cc2s1` [Example 276, (2R,3R,4R,5R,6S)-2-(hydroxymethyl)-6-(5-(2-hydroxypropan-2-yl)-4-(2-methylbenzo[d]thiazol-6-yl)-4H-1,2,4-triazol-3-yl)-4-(4-(3,4,5-trifluorophenyl)-1H-1,2,3-triazol-1-yl)tetrahydro-2H-pyran-3,5-diol], the half-inhibitory concentration (IC50) was determined as 50 nM.

Take `CO[C@@H]1[C@@H](n2cc(-c3ccc(Cl)c(F)c3)nn2)[C@@H](O)[C@@H](CO)O[C@H]1c1nc(C)nn1-c1cc(Cl)ccc1Cl` [Example 257, (2R,3R,4S,5R,6S)-4-(4-(4-chloro-3-fluorophenyl)-1H-1,2,3-triazol-1-yl)-6-(1-(2,5-dichlorophenyl)-3-methyl-1H-1,2,4-triazol-5-yl)-2-(hydroxymethyl)-5-methoxytetrahydro-2H-pyran-3-ol]: the IC50 was 50 nM.

`Cc1nc2ccc(-n3cnnc3[C@@H]3O[C@H](CO)[C@H](O)[C@H](n4cc(-c5cc(F)c(F)c(F)c5)nn4)[C@H]3O)cc2n1C` [Example 169]: the IC50 worked out at 280 nM.

For `OC[C@H]1O[C@@H](c2nncn2-c2ccc3ccccc3c2)[C@H](O)[C@@H](n2cc(-c3cc(F)c(F)c(F)c3)nn2)[C@H]1O` [Example 95], the IC50 stood at 130 nM.

Consider `OC[C@H]1O[C@@H](c2nncn2-c2cccc(-c3ccccc3)c2)[C@H](O)[C@@H](n2cc(-c3cc(F)c(F)c(F)c3)nn2)[C@H]1O` [Example 100], for which the IC50 was 470 nM.

The experiment is the same for the next values; noted with them: read-out: hGal3 IC50.
For `Cc1nc2ccc(-n3ncnc3[C@@H]3O[C@H](CO)[C@H](O)[C@H](n4cc(-c5ccc(Br)c(F)c5)nn4)[C@H]3O)cc2s1` [Example 216], the half-inhibitory concentration (IC50) amounted to 50 nM.

The same experiment, now with this note: read-out: hGal IC50.
Consider `Cc1nc([C@@H]2O[C@H](CO)[C@H](O)[C@H](n3cc(-c4ccc(Cl)cc4F)nn3)[C@H]2O)n(-c2cc(Cl)ccc2C(F)(F)F)n1` [Example A52], for which the IC50 was 52 nM.

`OC[C@H]1O[C@@H](c2ncnn2-c2cc(Cl)ccc2C(F)(F)F)[C@H](O)[C@@H](n2cc(-c3cc(F)c(F)c(F)c3)nn2)[C@H]1O` [Example A7]: the half-maximal inhibitory concentration (IC50) is 27 nM.

In the case of `Cc1nc([C@@H]2O[C@H](CO)[C@H](O)[C@H](n3cc(-c4cc(F)c(Cl)c(F)c4)nn3)[C@H]2O)n(-c2cc(C(F)F)ccc2Cl)n1` [Example A43], the IC50 stood at 50 nM.

Regarding `Cc1nc([C@@H]2O[C@H](CO)[C@H](O)[C@H](n3cc(-c4ccc(Cl)c(F)c4)nn3)[C@H]2O)n(-c2cc(Cl)ccc2C2CC2)n1` [Example A41], the IC50 is 59 nM.

For `Cc1nc([C@@H]2O[C@H](CO)[C@H](O)[C@H](n3cc(-c4cc(F)c(Cl)c(Cl)c4)nn3)[C@H]2O)n(-c2cc(Cl)ccc2OC(F)(F)F)n1` [Example A26], the IC50 is 36 nM.
